Source: BindingDB's records for doi:10.1016/j.bmc.2015.10.018 (Aristotle University of Thessaloniki, 2015)

Columns and labels:
Carbonic anhydrase 1 [1] = molecular target: T1, Carbonic anhydrase 1 (Homo sapiens, UniProt P00915); assay: Inhibition of human recombinant carbonic anhydrase 1
Carbonic anhydrase 12 [2] = molecular target: T2, Carbonic anhydrase 12 (Homo sapiens, UniProt O43570); assay: ChEBML_1523544; conditions: 25 °C
Description: (§1) Inhibition of human recombinant carbonic anhydrase 12 preincubated for 15 mins at room temperature/6 hrs at 4 deg C by stopped-flow CO2 hydration assay

Carbonic anhydrase 2 [3] = molecular target: T3, Carbonic anhydrase 2 (Homo sapiens, UniProt P00918); assay: (§2) Inhibition of human recombinant carbonic anhydrase 2 preincubated for 15 mins at room temperature/6 hrs at 4 deg C by stopped-flow CO2 hydration assay; conditions: 25 °C
Carbonic anhydrase 12 [4] = molecular target: T2, Carbonic anhydrase 12; assay: as §1; conditions: 25 °C
Carbonic anhydrase 2 [5] = molecular target: T3, Carbonic anhydrase 2; assay: ChEBML_1523541; conditions: 25 °C; description: as §2
Carbonic anhydrase 1 [6] = molecular target: T1, Carbonic anhydrase 1; assay: ChEBML_1523540; conditions: 25 °C
Description: Inhibition of human recombinant carbonic anhydrase 1 preincubated for 15 mins at room temperature/6 hrs at 4 deg C by stopped-flow CO2 hydration assay

T2 sequence (O43570 whole entry): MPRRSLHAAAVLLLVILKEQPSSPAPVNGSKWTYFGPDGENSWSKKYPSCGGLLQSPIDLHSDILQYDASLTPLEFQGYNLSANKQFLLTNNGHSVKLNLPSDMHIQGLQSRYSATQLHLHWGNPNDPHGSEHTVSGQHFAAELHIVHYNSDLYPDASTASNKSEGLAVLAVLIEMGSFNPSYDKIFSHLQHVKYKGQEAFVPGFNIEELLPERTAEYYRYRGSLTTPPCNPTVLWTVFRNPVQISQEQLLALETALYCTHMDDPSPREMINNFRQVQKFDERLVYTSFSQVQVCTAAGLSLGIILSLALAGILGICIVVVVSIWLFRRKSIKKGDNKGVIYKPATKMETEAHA
T1 sequence (P00915 whole entry): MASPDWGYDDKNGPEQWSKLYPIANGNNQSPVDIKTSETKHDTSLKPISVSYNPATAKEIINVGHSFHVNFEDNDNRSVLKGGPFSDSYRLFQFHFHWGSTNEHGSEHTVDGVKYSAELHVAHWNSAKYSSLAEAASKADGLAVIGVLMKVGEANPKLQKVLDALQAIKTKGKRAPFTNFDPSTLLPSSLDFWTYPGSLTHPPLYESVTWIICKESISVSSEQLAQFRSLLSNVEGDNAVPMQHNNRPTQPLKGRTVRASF

- Ki (Carbonic anhydrase 1 [1]): > 10 µM
- Ki (Carbonic anhydrase 12 [2]): 52.1 nM
- Ki (Carbonic anhydrase 2 [3]): 6.21 µM
- Ki (Carbonic anhydrase 12 [4]): 52 nM
- Ki (Carbonic anhydrase 2 [5]): 6.21 µM
- Ki (Carbonic anhydrase 1 [6]): > 10 µM
SMILES: O=c1cc(O)cc2oc(-c3ccc(O)c(O)c3)c(O[C@@H]3O[C@H](CO)[C@@H](O)[C@H](O)[C@H]3O)c(O)c1-2 [Quercetin 3-O-beta-D-glucoside]
